From patent US8008285B2, “Droxidopa and pharmaceutical composition thereof for the treatment of fibromyalgia” (Chelsea Therapeutics, Inc., priority 2007, dated 2011)
Where “and” joins values, the source holds several entries; their conditions need not be identical. Equal values may be shown once.

Experiments:
plasma norepinephrine = experiment: Plasma norepinephrine concentration after dosing droxidopa combinations; assay type: in vivo, rat; settings: 2 hours post-dosing, rats
Description: The pharmacokinetic properties of droxidopa combinations useful in the methods of the invention were evaluated in male Sprague Dawley rats.
Administration of droxidopa combinations was seen to affect plasma norepinephrine concentration in comparison to administration of droxidopa alone. Formulation 0 indicates administration of the vehicle alone without droxidopa or a droxidopa combination of the invention and provides a baseline comparative of plasma norepinephrine levels in an untreated subject.

[1] = system: Chronic Constriction Injury (CCI) model; experiment: Chronic Constriction Injury (CCI) model, mechanical allodynia (electronic Von Frey); assay type: in vivo, rat; settings: 60 minutes post dosing; for levels of allodynia compared with vehicle treated animals: ANOVA followed by t-test, significant at P<0.05; for levels of allodynia compared with vehicle treated animals / (3) Post-Treatment (tactile pressure threshold), Ave. / (3) − (2), Ave. / Inhibition (%) of allodynia, Ave. / (3) Post-Treatment (tactile pressure threshold) / (3) − (2) (Post-Treatment minus Pre-Treatment) / Inhibition (%) of allodynia: IP; for (3) Post-Treatment (tactile pressure threshold), Ave. / (3) − (2), Ave. / Inhibition (%) of allodynia, Ave.: group average of 10 animals; for (3) Post-Treatment (tactile pressure threshold), Ave. / (3) − (2), Ave. / Inhibition (%) of allodynia, Ave. / (3) Post-Treatment (tactile pressure threshold) / (3) − (2) (Post-Treatment minus Pre-Treatment) / Inhibition (%) of allodynia: 400 mg/kg droxidopa and 20 mg/kg carbidopa, or 18 mg/kg fluoxetine; for (3) Post-Treatment (tactile pressure threshold) / (3) − (2) (Post-Treatment minus Pre-Treatment) / Inhibition (%) of allodynia: individual animals, male Wistar rats
Description: Treatment of fibromyalgia through reducing sensitivity to chronic pain using droxidopa in combination with carbidopa was investigated using the Chronic Constriction Injury (CCI) model. […] Specifically, after anesthetization using pentobarbital (50 mg/kg, 5 ml/kg, i.p.), the sciatic nerve was exposed at mid-thigh level, and three ligatures (4-0 silk suture), about 1 mm apart, were loosely tied around the nerve. The animals were then housed individually in cages with soft bedding for seven days before testing for mechanical allodynia. […] The tip was gradually applied with sufficient force to cause slight buckling of the filament against the paw. […] Allodynia was calculated according to the following formula: % Inhibition=ΔTreatment/ΔBlank×100%. where Δ Treatment is the change in tactile pressure threshold over pre-treatment after ligation [(Post-Treatment)-(Pre-Treatment)], and Δ Blank is change in tactile pressure threshold over pre-ligation but before treatment [(Pre-Ligation)-(Pre-Treatment)]. A one-way ANOVA followed by t-test was applied for comparison between test substance treated groups and the vehicle control group. Activity was considered significant at P<0.05.

MAO-A = target: T1, MAO-A (Homo sapiens, UniProt P21397); settings: cited from earlier work
T1 sequence (P21397 1-527): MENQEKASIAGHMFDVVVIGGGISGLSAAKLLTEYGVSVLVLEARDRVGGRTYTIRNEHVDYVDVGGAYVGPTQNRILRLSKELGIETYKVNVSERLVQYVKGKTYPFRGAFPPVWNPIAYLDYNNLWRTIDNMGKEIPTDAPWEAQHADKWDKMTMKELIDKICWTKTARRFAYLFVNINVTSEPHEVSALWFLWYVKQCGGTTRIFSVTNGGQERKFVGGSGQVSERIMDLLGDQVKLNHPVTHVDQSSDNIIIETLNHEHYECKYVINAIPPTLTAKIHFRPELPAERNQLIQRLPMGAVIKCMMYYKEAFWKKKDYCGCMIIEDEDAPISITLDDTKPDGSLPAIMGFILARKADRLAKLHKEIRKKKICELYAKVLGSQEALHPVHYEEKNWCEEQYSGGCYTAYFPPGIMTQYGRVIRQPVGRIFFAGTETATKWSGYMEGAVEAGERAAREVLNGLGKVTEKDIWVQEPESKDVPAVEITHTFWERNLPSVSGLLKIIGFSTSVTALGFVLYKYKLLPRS

SMILES: NC(C(=O)O)C(O)c1ccc(O)c(O)c1 (stereo not drawn) [Droxidopa, threo-3-(3,4-dihydroxyphenyl)serine]
- increase in plasma norepinephrine concentration (fold over vehicle alone) (plasma norepinephrine): ~5 fold
- levels of allodynia compared with vehicle treated animals [1]: significantly decreased levels of allodynia
- (3) Post-Treatment (tactile pressure threshold), Ave. [1]: 21.7
- (3) − (2), Ave. [1]: 13.2
- Inhibition (%) of allodynia, Ave. [1]: 65.7%
- (3) Post-Treatment (tactile pressure threshold) [1]: 26.3 and 32.1 and 23.4 and 26.2 and 22.9 and 11.4 and 20.1 and 12.6 and 22.3 and 19.7
- (3) − (2) (Post-Treatment minus Pre-Treatment) [1]: 16.2 and 24.4 and 16.7 and 14.4 and 16.3 and 2.8 and 13.8 and 6 and 10.9 (2×)
- Inhibition (%) of allodynia [1]: total allodynia inhibition in several test subjects and 104.5% and 115.6% and 66.3% and 75.8% and 74.4% and 11.5% and 72.6% and 26.1% and 62.3% and 48.0%

SMILES: CNCCC(Oc1ccc(C(F)(F)F)cc1)c1ccccc1 (stereo not shown) [Fluoxetine, fluoxetine]
- levels of allodynia compared with vehicle treated animals [1]: not significantly different from vehicle-treated rats
- (3) Post-Treatment (tactile pressure threshold), Ave. [1]: 9.2
- (3) − (2), Ave. [1]: 0.4
- Inhibition (%) of allodynia, Ave. [1]: 0.7%
- Inhibition (%) of allodynia, Ave. ([1]; listed as fluoxetine): less than 1%
- (3) Post-Treatment (tactile pressure threshold) [1]: 14.4 and 12.4 and 11.2 and 9.7 and 7 and 10.4 and 6.5 and 8.8 and 6 and 5.9
- (3) − (2) (Post-Treatment minus Pre-Treatment) [1]: 5.3 and 1.2 and 3 (2×) and 0.6 (2×) and 1.6 and −5.5 and −2.7 and −3.6
- Inhibition (%) of allodynia [1]: 25.0% and 5.9% and 17.3% and 3.8% (2×) and 6.1% and 12.2% and −40.1% and −12.1% and −14.6%
- Inhibition (%) of allodynia ([1]; listed as fluoxetine): 25%
- increases in allodynia ([1]; individual fluoxetine-treated subjects, 18 mg/kg IP): ≤ 40.1%

SMILES: O=C(NCCN1CCOCC1)c1ccc(Cl)cc1 [moclobemide]
- selectivity for MAO-A than MAO-B (MAO-A): approximately three
